Values joined by “and” are separate entries in the source; they are usually repeats but may differ in a detail not shown here. Equal entries are not always repeated.
Assays:
PP2A [1] = assay: PP2A protein expression level in PC12 cells treated with Aβ (Western Blot); assay type: cell-based; details: then Aβ 40 μmol/L; for PP2A (Western Blot signal) / PP2A protein expression level, β-actin(%): 2 h, 24 h
Description: PC12 cells were cultured adherently. 0.1 μmol/L compound 2, 0.5 μmol/L compound 2, 1 μmol/L compound 2, 5 μmol/L compound 2, and 10 μmol/L compound 2 were added respectively. Then, the cells were incubated for 2 h. 40 μmol/L Aβ was then added. Then, the cells were incubated for 24 h. Total protein was extracted. PP2A activity was detected by the Western Blot assay.

PP2A [2] = assay: Okadaic acid-induced PP2A protein expression level in PC12 cells (Western Blot); assay type: cell-based; details: for PP2A (Western Blot signal) / PP2A(%): 2 h, then okadaic acid 40 nmol/L, 24 h
Description: PC12 cells were inoculated into a T25 culture flask. After the cells were attached to the wall, compound 1 and compound 2 were added, and then the cells were incubated for 2 h. 40 nmol/L okadaic acid was then added. Then, the cells were incubated for 24 h. The protein was extracted. Based on the Western Blot assay, the PP2A protein expression level in PC12 cells was detected through SDS-PAGE and transfer, immunoblotting, color development, and G: BOX chemiXR5 imaging.

[3] = system: p-tauSer396 in SH-SY5Y cells; assay: Okadaic acid-induced phosphorylation of tau protein (p-tauSer396) in SH-SY5Y cells (Western Blot); assay type: cell-based, human; details: for p-tauSer396 level (%): 24 h, then okadaic acid 40 nmol/L, SEM
Description: SH-SY5Y cells were cultured in vitro for 24 h in culture media containing different concentrations of compound 2. Then, the cells were treated with 40 nmol/L okadaic acid for 24 h. The p-tauSer396 level of the SH-SY5Y cells was measured by the Western Blot assay.

PC12 cells [4] = assay: Survival rate of PC12 cells in the okadaic acid-induced injury model (CCK-8); assay type: cell-based
Description: PC12 cells were detached and counted. A cell suspension was prepared at 8.0×10^4 cells/mL. 100 μL of the cell suspension was added to each well of a 96-well cell culture plate. The 96-well cell culture plate was placed in an incubator at 37° C. in 5% CO2 and cultured for 24 h. In an experimental group, the PC12 cells were pre-incubated for 2 h in a culture medium containing a test compound (the concentrations of the compound were 0.1 μmol/L, 0.5 μmol/L, 1 μmol/L, 5 μmol/L, and 10 μmol/L respectively, and the concentrations of the compound were set according to the concentrations in Table 5, Table 6, Table 7, and Table 8). […] In addition, a negative control group (no test compound or okadaic acid added) and a model group (only okadaic acid added) were set. The 96-well cell culture plate was placed in an incubator at 37° C. in 5% CO2 and cultured for 24 h. The cells in the 96-well cell culture plate were stained with 10 μL of CCK-8 in each well, and then cultured in the incubator for 1 h to 2 h. The 96-well cell culture plate was shaken gently for 10 min to mix uniformly and remove bubbles from the 96-well cell culture plate. The OD value of each well at 2=450 nm was read by using a microplate reader. A survival rate of cells was calculated.
Calculation formula for the cell survival rate: […]
The effect of each compound on the survival rate of PC12 cells in the okadaic acid- and Aβ1-42-induced injury models was determined by the CCK-8 cell proliferation assay.

PC12 cells [5] = assay: Survival rate of PC12 cells in the Aβ1-42-induced injury model (CCK-8); assay type: cell-based; details: for OD value at 450 nm, Mean ± SD: 2 h, then Aβ1-42 40 μmol/L, 24 h, PC12 cells
[6] = compound 0.1 μmol/L, PC12 cells
[7] = compound 0.5 μmol/L, PC12 cells

Which results are given for `COCc1cc2oc(=N)c3ccccc3n2n1` [Compound 2, 2-(methoxymethyl)-5H-benzo[d]pyrazolo[5,1-b][1,3]oxazin-5-imine]?
PP2A (Western Blot signal) (PP2A [1]; [6]): 1025.7; PP2A protein expression level, β-actin(%) (PP2A [1]; [6]): 31.24%; PP2A (Western Blot signal) (PP2A [1]; [7]): 1129.7; PP2A protein expression level, β-actin(%) (PP2A [1]; [7]): 33.18%; PP2A (Western Blot signal) (PP2A [1]; compound 1 μmol/L, PC12 cells): 1180.1; PP2A protein expression level, β-actin(%) (PP2A [1]; compound 1 μmol/L, PC12 cells): 33.51%; PP2A (Western Blot signal) (PP2A [1]; compound 5 μmol/L, PC12 cells): 1284.7; PP2A protein expression level, β-actin(%) (PP2A [1]; compound 5 μmol/L, PC12 cells): 35.61%; PP2A (Western Blot signal) (PP2A [1]; compound 10 μmol/L, PC12 cells): 2192.1; PP2A protein expression level, β-actin(%) (PP2A [1]; compound 10 μmol/L, PC12 cells (normal cells 58.95%)): 58.59%; effect on PP2A protein expression level (PP2A [1]; compound 10 μmol/L, PC12 cells): can significantly increase the PP2A protein expression level; effect on PP2A protein expression level (PP2A [1]; compound 0.1, 0.5, 1 and 5 μmol/L, PC12 cells): can increase the PP2A protein expression level in PC12 cells that is reduced due to Aβ, in a specific dose-effect relationship; PP2A (Western Blot signal) (PP2A [2]; compound 1 μmol/L): 557.1; PP2A(%) (PP2A [2]; compound 1 μmol/L): 14%; PP2A (Western Blot signal) (PP2A [2]; compound 5 μmol/L): 688.01; PP2A(%) (PP2A [2]; compound 5 μmol/L): 18%; PP2A (Western Blot signal) (PP2A [2]; compound 10 μmol/L): 1130.4; PP2A(%) (PP2A [2]; compound 10 μmol/L): 29%; effect on the PP2A expression level (PP2A [2]; compound 1, 5 and 10 μmol/L, compared with okadaic acid only): can significantly increase the PP2A expression level dose-dependently; okadaic acid-induced phosphorylation of tau protein ([3]; compared with okadaic acid only): can significantly inhibit okadaic acid-induced phosphorylation of tau protein in cells; p-tauSer396 level (%) ([3]; compound 0.1 μmol/L, n = 3): 0.761 ± 0.008%; p-tauSer396 level (%) ([3]; compound 0.3 μmol/L, n = 3): 0.663 ± 0.027%; change of p-tauSer396 level ([3]; compound 1.0 μmol/L and 3.0 μmol/L): decreases significantly (P<0.05); p-tauSer396 level (%) ([3]; compound 1.0 μmol/L, n = 3, P<0.05 vs negative control): 0.557 ± 0.013 %; p-tauSer396 level (%) ([3]; compound 3.0 μmol/L, n = 3, P<0.05 vs negative control): 0.578 ± 0.025 %; change of p-tauSer396 level ([3]; compound 10 μmol/L): decreases significantly (P<0.01); p-tauSer396 level (%) ([3]; compound 10 μmol/L, n = 3, P<0.01 vs negative control): 0.522 ± 0.016 %; viability at 0.1 µM (PC12 cells [4]; Rattus norvegicus, PC-12, 24 h, compound 0.1 μmol/L, 2 h, then okadaic acid 50 nmol/L, 24 h, PC12 cells): 49.2%; viability at 0.5 µM (PC12 cells [4]; Rattus norvegicus, PC-12, 24 h, compound 0.5 μmol/L, 2 h, then okadaic acid 50 nmol/L, 24 h, PC12 cells): 51%; viability at 1 µM (PC12 cells [4]; Rattus norvegicus, PC-12, 24 h, compound 1 μmol/L, 2 h, then okadaic acid 50 nmol/L, 24 h, PC12 cells): 59.4%; viability at 5 µM (PC12 cells [4]; Rattus norvegicus, PC-12, 24 h, compound 5 μmol/L, 2 h, then okadaic acid 50 nmol/L, 24 h, PC12 cells): 70.8%; viability at 10 µM (PC12 cells [4]; Rattus norvegicus, PC-12, 24 h, compound 10 μmol/L, 2 h, then okadaic acid 50 nmol/L, 24 h, PC12 cells): 78.4%; OD value at 450 nm, Mean ± SD (PC12 cells [4]; compound 0.1 μmol/L, 2 h, then okadaic acid 50 nmol/L, 24 h, PC12 cells): 0.652 ± 0.018; OD value at 450 nm, Mean ± SD (PC12 cells [4]; compound 0.5 μmol/L, 2 h, then okadaic acid 50 nmol/L, 24 h, PC12 cells): 0.676 ± 0.016; OD value at 450 nm, Mean ± SD (PC12 cells [4]; compound 1 μmol/L, 2 h, then okadaic acid 50 nmol/L, 24 h, PC12 cells): 0.787 ± 0.028; OD value at 450 nm, Mean ± SD (PC12 cells [4]; compound 5 μmol/L, 2 h, then okadaic acid 50 nmol/L, 24 h, PC12 cells): 0.92 ± 0.008 and 0.967 ± 0.018; Survival rate % (PC12 cells [4]; compound 5 μmol/L, 2 h, then okadaic acid 50 nmol/L, 24 h, PC12 cells, 1440 min, 5 µM): 72.93%; OD value at 450 nm, Mean ± SD (PC12 cells [4]; compound 10 μmol/L, 2 h, then okadaic acid 50 nmol/L, 24 h, PC12 cells): 1.04 ± 0.017; survival rate compared with okadaic acid model group (PC12 cells [4]; compound 0.1 and 0.5 μmol/L): no statistical difference (P>0.05); survival rate compared with okadaic acid model group (PC12 cells [4]; compound 1, 5 and 10 μmol/L): significant statistical differences (P<0.01); viability at 0.1 µM (PC12 cells [5]; Rattus norvegicus, PC-12, 24 h): 50.7%; viability at 0.5 µM (PC12 cells [5]; Rattus norvegicus, PC-12, 24 h): 50.6%; viability at 1 µM (PC12 cells [5]; Rattus norvegicus, PC-12, 24 h): 55.7%; viability at 5 µM (PC12 cells [5]; Rattus norvegicus, PC-12, 24 h): 68.3%; viability at 10 µM (PC12 cells [5]; Rattus norvegicus, PC-12, 24 h): 79.1%; OD value at 450 nm, Mean ± SD (PC12 cells [5]; compound 0.1 μmol/L): 0.699 ± 0.027; OD value at 450 nm, Mean ± SD (PC12 cells [5]; compound 0.5 μmol/L): 0.698 ± 0.024; OD value at 450 nm, Mean ± SD (PC12 cells [5]; compound 1 μmol/L): 0.768 ± 0.015; OD value at 450 nm, Mean ± SD (PC12 cells [5]; compound 5 μmol/L): 0.941 ± 0.018; OD value at 450 nm, Mean ± SD (PC12 cells [5]; compound 10 μmol/L): 1.09 ± 0.026; survival rate compared with Aβ1-42 model group (PC12 cells [5]; compound 0.1 and 0.5 μmol/L): no statistical difference (P>0.05); survival rate compared with Aβ1-42 model group (PC12 cells [5]; compound 1, 5 and 10 μmol/L): statistical differences (P<0.01)

From US20260335329A1, “PROTEIN PHOSPHATASE AGONIST AND USE” (priority 2022, published 2026)
